Measured values published in the supplement of paper PMC10331698.
± gives the standard deviation of the averaged measurements.

Experiments:
Assay in all cases: level (log10 ratio to DMSO vehicle control); higher = higher biomarker level / cell amount than vehicle control
Details in all cases: in DMSO
[1] = compound: C=CC(=O)OCCC(F)(F)C(F)(F)C(F)(F)C(F)(F)F [2-(Perfluorobutyl)ethyl acrylate]
Procedure: (§1)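 BioMAP Diversity Plus panel of 12 human primary cell co-culture systems (3C, 4H, LPS, SAg, BT, BF4T, BE3C, CASM3C, HDF3CGF, KF3CT, MyoF, Mphg). Compounds were added 1 h before stimulation and left for 24 h (MyoF 48 h; BT 72 h for soluble read-outs or 6 d for IgG). Biomarkers were read by ELISA, cytotoxicity by SRB, PBMC viability and proliferation by Alamar Blue. Each well value was divided by the mean of 8 DMSO control wells on the same plate and log10 transformed; duplicate blinded samples were tested at 4 concentrations.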

[2] = compound: CNS(=O)(=O)C(F)(F)C(F)(F)C(F)(F)C(F)(F)C(F)(F)C(F)(F)C(F)(F)C(F)(F)F [N-Methylperfluorooctanesulfonamide]
Procedure: as §1

[3] = compound: FC(F)(F)C(F)(F)C(F)(F)C(F)(F)C(F)(F)C(F)(F)C(F)(F)CCI [1-Iodo-1H,1H,2H,2H-perfluorononane]
Procedure: as §1

[4] = compound: N=C(N)C(F)(F)C(F)(F)C(F)(F)C(F)(F)C(F)(F)C(F)(F)C(F)(F)F [Perfluorooctanamidine]
Procedure: as §1

[5] = compound: O=C(O)C(F)(F)OC(F)(F)C(F)(F)OC(F)(F)C(F)(F)C(F)(F)C(F)(F)F [Perfluoro-3,6-dioxadecanoic acid]
Procedure: as §1

[6] = compound: O=C(O)CCC(F)(F)C(F)(F)C(F)(F)F [3:3 Fluorotelomer carboxylic acid]
Procedure: as §1

[7] = compound: OCC(F)(F)C(F)(F)C(F)(F)C(F)(F)C(F)(F)C(F)F [1H,1H,7H-Dodecafluoro-1-heptanol]
Procedure: as §1

Test System	level (log10) ([1]; 6700 nM)	level (log10) ([1]; 20000 nM)	level (log10) ([1]; 60000 nM)	level (log10) ([2]; 6700 nM)	level (log10) ([2]; 20000 nM)	level (log10) ([2]; 60000 nM)	level (log10) ([3]; 6700 nM)	level (log10) ([3]; 20000 nM)	level (log10) ([4]; 6700 nM)	level (log10) ([4]; 20000 nM)	level (log10) ([4]; 60000 nM)	level (log10) ([5]; 6700 nM)	level (log10) ([5]; 20000 nM)	level (log10) ([5]; 60000 nM)	level (log10) ([6]; 6700 nM)	level (log10) ([6]; 20000 nM)	level (log10) ([6]; 60000 nM)	level (log10) ([7]; 6700 nM)	level (log10) ([7]; 20000 nM)	level (log10) ([7]; 60000 nM)
BE3C:CXCL10/IP-10	-0.0025 ± 0.00071	-0.007 ± 0.0057	-0.012 ± 0.013	-0.0415 ± 0.026	-0.0475 ± 0.0064	-0.0795 ± 0.049	0 ± 0.016	0.0025 ± 0.011	0.0045 ± 0.023	-0.0055 ± 0.0035	0.003	-0.0415 ± 0.025	-0.0795 ± 0.033	-0.626 ± 0.02	-0.0015 ± 0.005	0.0045 ± 0.015	0.013 ± 0.0099	0.0055 ± 0.028	0.004 ± 0.021	0.0125 ± 0.012
4H:SRB	-0.003 ± 0.0085	0.0105 ± 0.021	-0.0205 ± 0.016	-0.0045 ± 0.0092	-0.041 ± 0.0014	-0.0635 ± 0.054	0.0165 ± 0.0092	0.024 ± 0.024	0.0035 ± 0.0021	-0.006 ± 0.0071	-0.029	-0.005 ± 0.018	-0.002 ± 0.0057	-0.065 ± 0.041	-0.0125 ± 0.022	-0.003 ± 0.013	-0.0185 ± 0.012	-0.0055 ± 0.028	-0.0215 ± 0.012	-0.0075 ± 0.029
BE3C:CXCL8/IL-8	0.006 ± 0.025	-0.0165 ± 0.06	-0.016 ± 0.095	-0.112 ± 0.0021	-0.118 ± 0.0042	-0.2 ± 0.078	0.018 ± 0.11	0.0505 ± 0.12	0.029 ± 0.042	-0.026 ± 0.061	-0.034	0.0135 ± 0.016	0.0065 ± 0.019	-0.0965 ± 0.0092	-0.0085 ± 0.036	0.0075 ± 0.005	-0.0095 ± 0.0092	0.0245 ± 0.053	0.0005 ± 0.032	-0.009 ± 0.014
BT:Secreted IgG	0.025 ± 0.017	-0.053 ± 0.054	-0.359 ± 0.049	0.001 ± 0.0028	-0.0745 ± 0.0092	-0.306 ± 0.21	-0.0075 ± 0.06	0.0115 ± 0.074	0.0115 ± 0.039	-0.042 ± 0.0042	-0.034	0.0295 ± 0.012	0.0235 ± 0.033	-0.0365 ± 0.0064	-0.011 ± 0.024	-0.0295 ± 0.012	-0.0155 ± 0.005	0.014 ± 0.025	-0.01 ± 0.028	-0.0275 ± 0.03
SAg:Proliferation	-0.043 ± 0.035	-0.122 ± 0.035	-0.372 ± 0.1	-0.0295 ± 0.026	-0.0755 ± 0.0092	-0.048 ± 0.1	-0.0025 ± 0.063	-0.0055 ± 0.074	0.0195 ± 0.011	0 ± 0.048	-0.565	-0.007 ± 0.03	0.023 ± 0.033	0.0095 ± 0.043	-0.021 ± 0.013	0.0205 ± 0.053	-0.006 ± 0.0085	-0.003 ± 0.014	0.03 ± 0.037	0.007 ± 0.018
3C:CD87/uPAR	0.0065 ± 0.00071	0.0145 ± 0.005	0.004 ± 0.017	-0.0125 ± 0.059	-0.052 ± 0.011	-0.0055 ± 0.032	0.0105 ± 0.019	0.0225 ± 0.016	0.0265 ± 0.059	0.0135 ± 0.028	0.042	0.0065 ± 0.013	-0.0145 ± 0.011	-0.083 ± 0.058	0.0055 ± 0.011	-0.017 ± 0.0057	-0.0125 ± 0.018	0.023 ± 0.0028	0.002 ± 0.0099	-0.0045 ± 0.012
4H:CCL26/Eotaxin-3	-0.0355 ± 0.039	-0.006 ± 0.0071	0.0135 ± 0.0078	-0.0005 ± 0.018	-0.0415 ± 0.032	-0.0675 ± 0.025	0.018 ± 0.0057	-0.004 ± 0.028	-0.006 ± 0.0042	-0.033 ± 0.0042	-0.118	0.0145 ± 0.005	-0.0035 ± 0.039	0.032 ± 0.048	-0.005 ± 0.0071	-0.004	-0.0225 ± 0.043	-0.0075 ± 0.0078	-0.023 ± 0.0042	-0.0155 ± 0.022
SAg:CD38	-0.007 ± 0.028	-0.0105 ± 0.023	-0.126 ± 0.0092	-0.012 ± 0.0085	-0.0255 ± 0.012	-0.0515 ± 0.0064	0.007 ± 0.03	-0.007 ± 0.042	0.009 ± 0.017	0.001 ± 0.013	-0.074	-0.0115 ± 0.0021	-0.021 ± 0.0057	-0.061 ± 0.069	-0.012 ± 0.024	0.008 ± 0.013	0.0015 ± 0.0035	0.0005 ± 0.013	0.0105 ± 0.019	0.0075 ± 0.022
BT:sIL-17F	-0.169 ± 0.0071	-0.393 ± 0.017	-0.673 ± 0.061	0.016 ± 0.18	0.066 ± 0.56	-0.385 ± 0.26	0.062 ± 0.023	0.0585 ± 0.011	-0.0225 ± 0.071	-0.209 ± 0.023	-0.112	-0.016 ± 0.055	-0.0335 ± 0.12	-0.021 ± 0.1	-0.003 ± 0.081	0.035 ± 0.081	0.059 ± 0.048	-0.104 ± 0.2	-0.0695 ± 0.07	-0.061 ± 0.064
SAg:CXCL8/IL-8	-0.029 ± 0.0099	-0.103 ± 0.013	-0.31 ± 0.064	-0.0435 ± 0.026	-0.0395 ± 0.005	-0.0275 ± 0.0035	-0.0055 ± 0.019	0.004 ± 0.045	0.005 ± 0.018	0.023 ± 0.0085	-0.022	-0.018 ± 0.0028	-0.0295 ± 0.018	-0.0385 ± 0.022	-0.0145 ± 0.00071	-0.016 ± 0.011	-0.0035 ± 0.013	0.025 ± 0.0028	0.008 ± 0.0071	0.037 ± 0.038
LPS:CD141/Thrombomodulin	-0.0365 ± 0.019	-0.03 ± 0.014	-0.038 ± 0.021	0.005 ± 0.0028	0.0475 ± 0.0092	0.056 ± 0.0014	-0.0265 ± 0.0021	-0.024 ± 0.0057	-0.0235 ± 0.0078	-0.0325 ± 0.022	-0.01	0.0245 ± 0.025	0.001 ± 0.04	-0.0235 ± 0.0078	-0.0175 ± 0.022	-0.001 ± 0.013	0.0035 ± 0.036	0.001 ± 0.028	0.0005 ± 0.037	0.0005 ± 0.042
SAg:SRB	0.009 ± 0.0071	0.0115 ± 0.0092	-0.0175 ± 0.028	-0.0095 ± 0.022	-0.021 ± 0.02	-0.0685 ± 0.036	0.0175 ± 0.005	0.031 ± 0.017	-0.0025 ± 0.0078	0.0025 ± 0.018	-0.084	-0.016 ± 0.0014	-0.0085 ± 0.021	-0.0855 ± 0.037	-0.0065 ± 0.011	-0.0065 ± 0.0078	-0.005 ± 0.016	-0.014 ± 0.017	-0.0105 ± 0.028	-0.013 ± 0.011
BF4T:PAI-I	-0.006 ± 0.025	0.007 ± 0.03	-0.0255 ± 0.025	0.0005 ± 0.018	0.0015 ± 0.028	0.0285 ± 0.033	-0.0005 ± 0.013	-0.013 ± 0.011	0.007 ± 0.013	-0.001 ± 0.03	0.03	-0.057 ± 0.011	-0.0575 ± 0.005	-0.054 ± 0.042	0.0025 ± 0.021	-0.011 ± 0.018	0.006 ± 0.0014	0.0055 ± 0.005	-0.0035 ± 0.013	0.0105 ± 0.013
SAg:CXCL9/MIG	-0.007 ± 0.016	0.001 ± 0.0057	-0.004 ± 0.013	-0.006 ± 0.017	-0.0065 ± 0.0021	-0.013 ± 0.011	-0.009 ± 0.0071	0.006 ± 0.0057	0 ± 0.0085	0.0085 ± 0.0021	0.007	-0.0095 ± 0.016	-0.0135 ± 0.013	0.01 ± 0.0042	0.001 ± 0.0028	-0.009 ± 0.0014	0.001 ± 0.014	0.006 ± 0.0071	-0.006 ± 0.0071	0.01 ± 0.0099
LPS:CD142/Tissue Factor	0.027 ± 0.016	-0.027 ± 0.088	-0.177 ± 0.12	-0.0275 ± 0.016	-0.0395 ± 0.016	-0.074 ± 0.018	0.046 ± 0.073	-0.0215 ± 0.09	-0.008 ± 0.037	0.0055 ± 0.033	-0.071	0.031 ± 0.054	-0.029 ± 0.03	-0.0375 ± 0.083	-0.014 ± 0.0014	-0.014 ± 0.011	-0.0015 ± 0.019	-0.008 ± 0.0014	-0.0175 ± 0.015	0.0065 ± 0.025
